# Target: D2 receptor (Homo sapiens, UniProt P14416)
# Test: [3H]Thymidine uptake assay for D2 intrinsic activity
# Assay type: cell-based
# Conditions: Table 1; test compound 1 μM; 1 μM Quinpirole = 100% intrinsic activity
# Procedure: D2 intrinsic activity of title compounds of the Examples, below, was determined using the [^3H]thymidine uptake assay described below.
# [^3H]Thymidine Uptake Assay for D2 Intrinsic Activity
# Cells are serum deprived by washing twice with 200 μl of serum-free media. 90 μl serum-free media was added to each well. The plates ware incubated for two to three hours. 10 μl of serum-containing media, as a positive control, vehicle (serum-free media), negative control (an antagonist) or test compounds and standards (10 μl of a 10 μM solution for a final concentration of 1 μM) in serum-free media were added to wells. The plates are returned to the incubator. Eighteen hours later [^3H]thymidine is added (0.5 μCi/well in 10 μl of serum-free media) and the plates are returned to the incubator. […] The plates are returned to the incubator, once again. One hour later the assay is terminated by rapid filtration through Whatman GF/C glass fiber filters. Filters are washed four times with 500 ml of 50 mM Tris-HCl pH 7.0 buffer, for example, using a Brandel MLR-96T cell harvester. […] Intrinsic activity is defined as total uptake (1 μM Quinpirole) minus serum-free media (no uptake). Test compounds are compared to 1 μM Quinpirole (full DA agonist), which was classified as 100% intrinsic activity.
# Sequence of D2 receptor (P14416 whole entry): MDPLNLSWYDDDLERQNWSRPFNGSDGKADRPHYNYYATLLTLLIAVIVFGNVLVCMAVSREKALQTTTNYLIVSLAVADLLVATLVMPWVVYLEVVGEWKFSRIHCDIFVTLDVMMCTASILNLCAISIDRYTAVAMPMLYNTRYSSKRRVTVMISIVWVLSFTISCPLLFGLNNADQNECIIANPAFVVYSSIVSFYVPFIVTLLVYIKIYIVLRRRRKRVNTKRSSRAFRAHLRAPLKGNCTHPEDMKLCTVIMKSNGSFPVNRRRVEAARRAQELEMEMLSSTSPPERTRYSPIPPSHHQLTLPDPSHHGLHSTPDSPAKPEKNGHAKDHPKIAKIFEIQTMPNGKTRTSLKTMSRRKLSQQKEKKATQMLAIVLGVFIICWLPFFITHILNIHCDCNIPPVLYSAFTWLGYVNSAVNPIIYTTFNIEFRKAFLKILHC
row,Structure (SMILES),Emax at 1 µM
1,"CC(C)COc1ccccc1N1CCN(CCCCOc2ccc3ccc(=O)[nH]c3n2)CC1 [Example B11, 7-{4-[4-(2-Isobutoxy-phenyl)-piperazin-1-yl]-butoxy}-1H-[1,8]naphthyridin-2-one]",31%
2,"O=c1ccc2ccc(OCCCCN3CCN(c4ccc(F)cc4)CC3)nc2[nH]1 [Example B13, 7-{4-[4-(4-Fluoro-phenyl)-piperazin-1-yl]-butoxy}-1H-[1,8]naphthyridin-2-one]",45%
3,"O=c1ccc2ccc(OCCCCN3CCN(c4ccc(F)c(Cl)c4)CC3)nc2[nH]1 [Example B14, 7-{4-[4-(3-Chloro-4-fluoro-phenyl)-piperazin-1-yl]-butoxy}-1H-[1,8]naphthyridin-2-one]",37%
4,"O=c1ccc2ccc(OCCCCN3CCN(c4cccc(C(F)(F)F)c4)CC3)nc2[nH]1 [Example B15, 7-{4-[4-(3-Trifluoromethyl-phenyl)-piperazin-1-yl]-butoxy}-1H-[1,8]naphthyridin-2-one]",17%
5,"O=c1ccc2ccc(OCCCCN3CCN(c4ccccc4C(F)(F)F)CC3)nc2[nH]1 [Example B16, 7-{4-[4-(2-Trifluoromethyl-phenyl)-piperazin-1-yl]-butoxy}-1H-[1,8]naphthyridin-2-one]",41%
6,"CC(F)(F)c1ccccc1N1CCN(CCCCOc2ccc3ccc(=O)[nH]c3n2)CC1 [Example B17, 7-(4-{4-[2-(1,1-Difluoro-ethyl)-phenyl]-piperazin-1-yl}-butoxy)-1H-[1,8]naphthyridin-2-one]",43%
7,"COc1cccc(N2CCN(CCCCOc3ccc4ccc(=O)[nH]c4n3)CC2)c1Cl [Example B18, 7-{4-[4-(2-Chloro-3-methoxy-phenyl)-piperazin-1-yl]-butoxy}-1H-[1,8]naphthyridin-2-one]",32%
8,"O=c1ccc2ccc(OCCCCN3CCN(c4cccc(Cl)c4F)CC3)nc2[nH]1 [Example B22, 7-{4-[4-(3-Chloro-2-fluoro-phenyl)-piperazin-1-yl]-butoxy}-1H-[1,8]naphthyridin-2-one]",36%
9,"O=c1ccc2ccc(OCCCCN3CCN(c4ccc(F)cc4Cl)CC3)nc2[nH]1 [Example B23, 7-{4-[4-(2-Chloro-4-fluoro-phenyl)-piperazin-1-yl]-butoxy}-1H-[1,8]naphthyridin-2-one]",15%
10,"O=c1ccc2ccc(OCCCCN3CCN(c4ccc(F)c(Cl)c4Cl)CC3)nc2[nH]1 [Example B24, 7-{4-[4-(2,3-Dichloro-4-fluoro-phenyl)-piperazin-1-yl]-butoxy}-1H-[1,8]naphthyridin-2-one]",10%
11,"O=c1ccc2ccc(OCCCCN3CCN(c4ccccc4-c4ccccc4)CC3)nc2[nH]1 [Example B26, 7-[4-(4-Biphenyl-2-yl-piperazin-1-yl)-butoxy]-1H-[1,8]naphthyridin-2-one]",23%
12,"COc1cccc(N2CCN(CCCCOc3ccc4ccc(=O)[nH]c4n3)CC2)c1C [Example B27, 7-{4-[4-(3-Methoxy-2-methyl-phenyl)-piperazin-1-yl]-butoxy}-1H-[1,8]naphthyridin-2-one]",47%
13,"O=c1ccc2ccc(OCCCCN3CCN(c4cccc(F)c4Cl)CC3)nc2[nH]1 [Example B28, 7-{4-[4-(2-Chloro-3-fluoro-phenyl)-piperazin-1-yl]-butoxy}-1H-[1,8]naphthyridin-2-one]",31%
14,"O=c1ccc2ccc(OCCCCN3CCN(c4cccc(C5CC5)n4)CC3)nc2[nH]1 [Example B29, 7-{4-[4-(6-Cyclopropyl-pyridin-2-yl)-piperazin-1-yl]-butoxy}-1H-[1,8]naphthyridin-2-one]",32%
15,"O=c1ccc2ccc(OCCCCN3CCN(c4ncccn4)CC3)nc2[nH]1 [Example B30, 7-[4-(4-Pyrimidin-2-yl-piperazin-1-yl)-butoxy]-1H-[1,8]naphthyridin-2-one]",83%
16,"COc1ccnc(N2CCN(CCCCOc3ccc4ccc(=O)[nH]c4n3)CC2)n1 [Example B31, 7-{4-[4-(4-Methoxy-pyrimidin-2-yl)-piperazin-1-yl]-butoxy}-1H-[1,8]naphthyridin-2-one]",76%
17,"O=c1ccc2ccc(OCCCCN3CCN(c4cccc5c4CCC5)CC3)nc2[nH]1 [Example B32, 7-[4-(4-Indan-4-yl-piperazin-1-yl)-butoxy]-1H-[1,8]naphthyridin-2-one]",19%
18,"O=c1ccc2ccc(OCCCCN3CCN(c4cccc5c4CCCC5)CC3)nc2[nH]1 [Example B33, 7-{4-[4-(5,6,7,8-Tetrahydro-naphthalen-1-yl)-piperazin-1-yl]-butoxy}-1H-[1,8]naphthyridin-2-one]",26%
19,"O=C1CCCc2cccc(N3CCN(CCCCOc4ccc5ccc(=O)[nH]c5n4)CC3)c21 [Example B35, 7-{4-[4-(8-Oxo-5,6,7,8-tetrahydro-naphthalen-1-yl)-piperazin-1-yl]-butoxy}-1H-[1,8]naphthyridin-2-one]",20%
20,"CC1(C)CCc2cccc(N3CCN(CCCCOc4ccc5ccc(=O)[nH]c5n4)CC3)c2C1=O [Example B36, 7-{4-[4-(7,7-Dimethyl-8-oxo-5,6,7,8-tetrahydro-naphthalen-1-yl)-piperazin-1-yl]-butoxy}-1H-[1,8]naphthyridin-2-one]",39%

# Same assay, conditions: Table 2; test compound 1 μM; 1 μM Quinpirole = 100% intrinsic activity
row,Structure (SMILES),Emax at 1 µM
1,"O=c1ccc2ccc(OCCCCN3CCN(c4cccc5c4CCCO5)CC3)nc2[nH]1 [Example B10′, 7-[4-(4-Chroman-5-yl-piperazin-1-yl)-butoxy]-1H-[1,8]naphthyridin-2-one]",22%
2,"O=c1ccc2ccc(OCCCCN3CCN(c4cccc5c4CCO5)CC3)nc2[nH]1 [Example B11′, 7-{4-[4-(2,3-Dihydro-benzofuran-4-yl)-piperazin-1-yl]-butoxy}-1H-[1,8]naphthyridin-2-one]",21%
3,"O=c1ccc2ccc(OCCCCN3CCN(c4cccc5c4OCCO5)CC3)nc2[nH]1 [Example B12′, 7-{4-[4-(2,3-Dihydro-benzo[1,4]dioxin-5-yl)-piperazin-1-yl]-butoxy}-1H-[1,8]naphthyridin-2-one]",24%
4,"O=c1ccc2ccc(OCCCCN3CCN(c4cccc5c4OC(F)(F)O5)CC3)nc2[nH]1 [Example B13′, 7-{4-[4-(2,2-Difluoro-benzo[1,3]dioxol-4-yl)-piperazin-1-yl]-butoxy}-1H-[1,8]naphthyridin-2-one]",33%
5,"CC1(C)COc2c(cccc2N2CCN(CCCCOc3ccc4ccc(=O)[nH]c4n3)CC2)C1=O [Example B16′, 7-{4-[4-(3,3-Dimethyl-4-oxo-chroman-8-yl)-piperazin-1-yl]-butoxy}-1H-[1,8]naphthyridin-2-one]",4%
6,"O=c1ccc2ccc(OCCCCN3CCN(c4cccc5c4OCCCO5)CC3)nc2[nH]1 [Example B20′, 7-{4-[4-(3,4-Dihydro-2H-benzo[b][1,4]dioxepin-6-yl)-piperazin-1-yl]-butoxy}-1H-[1,8]naphthyridin-2-one]",16%
7,"O=c1ccc2ccc(OCCCCN3CCN(c4cccc5cccnc45)CC3)nc2[nH]1 [Example B21′, 7-[4-(4-Quinolin-8-yl-piperazin-1-yl)-butoxy]-1H-[1,8]naphthyridin-2-one]",18%
8,"O=c1ccc2ccc(OCCCCN3CCN(c4cccc5ncccc45)CC3)nc2[nH]1 [Example B22′, 7-[4-(4-Quinolin-5-yl-piperazin-1-yl)-butoxy]-1H-[1,8]naphthyridin-2-one]",12%
9,"O=c1ccc2ccc(OCCCCN3CCN(c4cccc5nccnc45)CC3)nc2[nH]1 [Example B23′, 7-[4-(4-Quinoxalin-5-yl-piperazin-1-yl)-butoxy]-1H-[1,8]naphthyridin-2-one]",21%
10,"O=c1ccc2ccc(OCCCCN3CCN(c4cccc5[nH]ccc45)CC3)nc2[nH]1 [Example B24′, 7-{4-[4-(1H-Indol-4-yl)-piperazin-1-yl]-butoxy}-1H-[1,8]naphthyridin-2-one]",42%
11,"O=c1ccc2ccc(OCCCCN3CCN(c4cccc5sccc45)CC3)nc2[nH]1 [Example B25′, 7-[4-(4-Benzo[b]thiophen-4-yl-piperazin-1-yl)-butoxy]-1H-[1,8]naphthyridin-2-one]",21%
12,"O=c1ccc2ccc(OCCCCN3CCN(c4cccc5ccoc45)CC3)nc2[nH]1 [Example B26′, 7-[4-(4-Benzofuran-7-yl-piperazin-1-yl)-butoxy]-1H-[1,8]naphthyridin-2-one]",26%
13,"CC(=O)N1CCCc2c(N3CCN(CCCCOc4ccc5ccc(=O)[nH]c5n4)CC3)cccc21 [Example B27′, 7-{4-[4-(1-Acetyl-1,2,3,4-tetrahydro-quinolin-5-yl)-piperazin-1-yl]-butoxy}-1H-[1,8]naphthyridin-2-one]",34%
14,"CN1CCCc2c1cccc2N1CCN(CCCCOc2ccc3ccc(=O)[nH]c3n2)CC1 [Example B28′, 7-{4-[4-(1-Methyl-1,2,3,4-tetrahydro-quinolin-5-yl)-piperazin-1-yl]-butoxy}-1H-[1,8]naphthyridin-2-one]",44%
15,"CCN1CCCc2c1cccc2N1CCN(CCCCOc2ccc3ccc(=O)[nH]c3n2)CC1 [Example B29′, 7-{4-[4-(1-Ethyl-1,2,3,4-tetrahydro-quinolin-5-yl)-piperazin-1-yl]-butoxy}-1H-[1,8]naphthyridin-2-one]",26%
16,"COc1ccc2cccc(N3CCN(CCCCOc4ccc5ccc(=O)[nH]c5n4)CC3)c2n1 [Example B30′, 7-{4-[4-(2-Methoxy-quinolin-8-yl)-piperazin-1-yl]-butoxy}-1H-[1,8]naphthyridin-2-one]",42%
17,"O=c1ccc2ccc(OCCCCN3CCN(c4cccc5ncc(F)cc45)CC3)nc2[nH]1 [Example B34′, 7-{4-[4-(3-Fluoro-quinolin-5-yl)-piperazin-1-yl]-butoxy}-1H-[1,8]naphthyridin-2-one]",35%
18,"O=c1ccc2ccc(OCCCCN3CCN(c4cccc5ccc(=O)[nH]c45)CC3)nc2[nH]1 [Example B36′, 7-{4-[4-(2-Oxo-1,2-dihydro-quinolin-8-yl)-piperazin-1-yl]-butoxy}-1H-[1,8]naphthyridin-2-one]",36%
19,"O=C1CCc2cccc(N3CCN(CCCCOc4ccc5ccc(=O)[nH]c5n4)CC3)c2N1 [Example B37′, 7-{4-[4-(2-Oxo-1,2,3,4-tetrahydro-quinolin-8-yl)-piperazin-1-yl]-butoxy}-1H-[1,8]naphthyridin-2-one]",39%
